Tests used:
Male C56/BL6 mice = assay: Apomorphine induced climbing (AIC) in pretreated male mice; type: in vivo; details: for attenuation / blockade of apomorphine induced climbing (AIC): male mice pretreated for 3 consecutive days, estradiol benzoate 0.1, 0.3 and 1 mg/kg, at 24 and 48 hours
Source text: Patients can be evaluated for cognitive diseases or disorders by any of the tests known in the art. Preclinically, animals can be evaluated for blockade/attenuation of symptoms associated with schizophrenia. Positive symptoms in animal models of schizophrenia can be evaluated by measuring changes in the overall level of activity of dopamine (DA) activity with concomitant parallel changes in locomotor activity (Depoortere R et al., 2003 Neuropsychopharmacology 28(11):1889-902), D-amphetamine (AMPH) and phencyclidine (PCP) via induction of model psychosis or locomotor hyperactivity (Freed W J et al., 1984 Neuropharmacology 23(2A):175-81; Sams-Dodd, F. 1998 Neuropsychopharmacology 19(1): 18-25). For example, Depoortere et al. have described tests for evaluating locomotor activity, catalepsy, climbing and stereotypy, which relate to positive symptomology and side effect profile, by characterizing compounds with typical and atypical antipsychotic efficacy (2003). Attenuation in apomorphine-induced climbing, stereotypy and catalepsy (AIC) can be evaluated as described by Fung Y K et al. 1986 Pharmacol Biochem Behav. 1986 24(1):139-41 and Fung, et aL, 1987 Steroids 49(4-5):287-94. Additionally, negative symptoms of schizophrenia can be evaluated by measuring social interaction under the influence of NMDA antagonists such as PCP (Sams-Dodd F 1998).
Male C56/BL6 mice were pretreated with estradiol benzoate 0.1, 0.3 and 1 mg/kg and an estrogen beta agonist, 7-bromo-2-(4-hydroxyphenyl)-1,3-benzoxazol-5-ol for three (3) consecutive days, and then evaluated for locomotor activity, catalepsy, AIC and stereotypy. Estradiol benzoate attenuated AIC at 24 and 48 hours (approximately 55%), while the estrogen beta agonist, 7-bromo-2-(4-hydroxyphenyl)-1,3-benzoxazol-5-ol, outperformed estradiol benzoate by inducing a sixty percent (60%) blockade of AIC in the male mice.

[1] = tested on: ovariectomized female rats; assay: Working memory, radial arm maze win-shift task; type: in vivo; details: OVX rats; estradiol benzoate 0.02 mg/kg s.c. in oil for 2 days; ERβ and ERα agonists 10 mg/kg for 6 days
Source text: Cognitive symptoms of memory, including those from Alzheimer's disease and stroke, can be evaluated by such models as the Fear Conditioning Paradigm (Gould T J et al., 2002 Behav Pharmacol. 13(4):287-94; Hamm A O et al., 2003 Brain 126(Pt 2):267-75) and Radial Arm Test (Aggleton J P et al., 1996 Behav Brain Res. 19(2):133-46), while spatial reference memory and learning can be evaluated in the Morris watermaze (Bontempi B et al., 1996 Eur J Neurosci. 8(11):2348-60). Additionally, memory and hippocampal hypo-functioning can be assessed by measuring the restoration of synaptic plasticity in ovariectomized (OVX) female rats. (Day and Good, 2005 Jan., Neurobiol Learn Mem., 83(1): 13-21). Further, changes in attention function because of schizophrenia can be examined by the five (5) Choice Serial Reaction Time Test (5CSRT) (see Muir J L, et al., 1995 Psychopharmacology (Berl) 118(1): 82-92; Robbins et al., 1998 Ann N Y Acad Sci. 846:222-37).
Female rats were habituated to a water deprivation schedule and to the radial maze for at least one week prior to acquisition. The rats were ovariectomized six to eight (6-8) weeks before testing. Subjects were then treated with either estradiol benzoate (0.02 mg/kg), the ERfl agonist, 7-bromo-2-(4-hydroxyphenyl)-1,3-benzoxazol-5-ol, or an ERα agonist. […]

male mice = details: cited from earlier work
βERKO female mice = assay: Phencyclidine (PCP) induced locomotor activity (LMA) during PCP withdrawal; type: in vivo; details: 0.3 mg/kg on day 5, sub-effective PCP dose after 4 day withdrawal
Experimental: Animals were treated for five (5) days with PCP. Following this period, the animals were given a 4 day withdrawal period. One group received 0.3mg/kg estradiol benzoate on day 5. […] Thus, the classic estrogen agonist, estradiol benzoate, effectively blocks the effects of PCP on LMA, with other ERβ agonists likely to behave similarly.

hippocampal CA1 region = assay: Synaptic plasticity (LTD/LTP) in the hippocampal CA1 region after ovariectomy; type: in vivo, rats; details: chronic replacement, injection every 48 hours over 5 weeks
Source text: In Experiment 1, ovariectomy carried out either five (5) days or five (5) weeks before testing impaired the induction of long-term depression (LTD), but not long-term potentiation (LTP). […] The findings are discussed with reference to (1) the contribution of Ca^2+ regulated synaptic signaling pathways in the CA1 region to estradiol modulation of LTP and LTD and (2) the potential functional significance of ovariectomy-induced changes in synaptic plasticity for learning and memory processes. […] Restoration of impaired synaptic plasticity of ovariectomized female rats following estrogen treatment can be evaluated by the protocol used by Day and Good, January 2005, Neurobiol Learn Mem., 83(1): 13-21.

[2] = tested on: young men diagnosed with severe schizophrenia; details: 33 young men, small doses for two weeks; cited from earlier work
aged rats (15 months) = assay: Mild cognitive impairment model: CREB levels and Novel Object Recognition in aged rats; type: in vivo; details: single injection 1 mg/kg 30 minutes prior to testing, compared to young 3 month old rats
Experimental: (§1) Novel Object Recognition is impaired in several disorders of memory including Alzheimer's disease, schizophrenia, mild cognitive impairment (MCI), stroke, amongst others. In rodents, […] is used extensively to examine the effects of drugs on this form of memory. An ERβ agonist, 7-bromo-2-(4-hydroxyphenyl)-1,3-benzoxazol-5-ol, was tested on this form of memory. In the habituation stage (Day 1), the rats, male Long Evans are habituated for 10 minutes each to an arena that contains 2 identical objects (YY). On trial 1 (Day 2), the arena is set up with a different set of identical objects (e.g., BB) and the animals are allowed to spend 5 minutes sniffing each objects. Thirty (30) minutes prior to T1, animals were injected with 7-bromo-2-(4-hydroxyphenyl)-1,3-benzoxazol-5-ol.
cAMP-response-element-binding protein (CREB) is expressed in all cells in the brain and is a member of a family of proteins that function as transcription factors. […] Aged animals show marked decreases in CREB activation and memory; and this decline in cognition in aged rats is a useful model of mild cognitive impairment seen in humans. As such, an ERβ agonist, 7-bromo-2-(4-hydroxyphenyl)-1,3-benzoxazol-5-ol, was tested on this form of recognition memory. […]

male Long Evans rats = assay: Novel Object Recognition; type: in vivo; details: 0.5 mg/kg injected 30 minutes prior to T1; Trial 2 48 hours after Day 2
Experimental: as §1

## C[C@]12CC[C@@H]3c4ccc(OC(=O)c5ccccc5)cc4CC[C@H]3[C@@H]1CC[C@@H]2O [estradiol benzoate]
Male C56/BL6 mice
  attenuation / blockade of apomorphine induced climbing (AIC): approximately 55%
[1]
  working memory in the radial arm maze: improved working memory
Male mice
  effect on apomorphine induced climbing: attenuate apomorphine induced climbing
βERKO female mice
  effect on PCP induced LMA: successfully blocked the effect of PCP induced LMA

## C[C@]12CC[C@@H]3c4ccc(O)cc4CC[C@H]3[C@@H]1CC[C@@H]2O [17β-estradiol]
Hippocampal CA1 region
  induction of LTP: no effect on the induction of LTP
  magnitude of paired-pulse induced LTD in the CA1 region: enhanced the magnitude of paired-pulse induced LTD
[2]
  hallucinations and delusions: significant decline in hallucinations and delusions

## Oc1ccc(-c2nc3cc(O)cc(Br)c3o2)cc1 [7-bromo-2-(4-hydroxyphenyl)-1,3-benzoxazol-5-ol]
Male C56/BL6 mice; 3 days of treatment
  blockade of AIC compared with estrogen treatment (FIG. 1): more profound blockade of AIC
Male C56/BL6 mice
  attenuation / blockade of apomorphine induced climbing (AIC): 60%
[1]
  working memory in the radial arm maze: improved working memory
Aged rats (15 months)
  CREB levels: restored the CREB levels
  memory in the NOR method: increased memory
Male Long Evans rats
  time investigating the novel object versus the familiar object in Trial 2: significantly improved

From US20060135574A1, “Novel uses for estrogen beta agonists” (Wyeth, priority 2004, published 2006)
